Where two headings read alike, the source gives them in different places.
Columns and labels:
SW620 [1] = experiment: Combination assay, SW620; assay type: cell-based, human; conditions: SW620, chemotherapeutic alone, read-out: Chemo GI50
Protocol: (§1) The combination index (CI) of combinations of certain example compounds and various chemotherapeutic agents in the CellTitetI-Glo® in vitro cell proliferation assays may be tested. A combination index score is calculated by the Chou and Talalay method (CalcuSyn software, Biosoft). The strength of synergy is scored using the ranking system Chou and Talalay: CI less than 0.8 indicates synergy, CI between 0.8 and 1.2 indicates additivity and CI greater than 1.2 indicates antagonism.
(§2) The EC50 values of representative combinations are also calculated. The individually measured EC50 values of the chemotherapeutic agent and the example compounds are compared to the EC50 value of the combination. The cell lines are characterised by tumor type. Combination assays are performed as described in: “Pim 1 kinase inhibitor ETP-45299 suppresses cellular proliferation and synergizes with PI3K inhibition”. Blanco-Aparicio, Carmen; Collazo, Ana Maria Garcia; Oyarzabal, Julen; Leal, Juan F.; Albaran, Maria Isabel; Lima, Francisco Ramos; Pequeno, Belen; Ajenjo, Nuria; Becerra, Mercedes; Alfonso, Patricia; Reymundo, Maria Isabel; Palacios, Irene; Mateos, Genoveva; Quinones, Helena; Corrionero, Ana; Carnero, Amancio; Pevarello, Paolo; Lopez, Ana Rodriguez; Fominaya, Jesus; Pastor, Joaquin; Bischoff, James R. Cancer Letters (Shannon, Ireland) 2011, 300(2), 145-153

CDK19/Cyclin C = CDK19/Cyclin C (Homo sapiens (Human), UniProt Q9BWU1); experiment: CDK19/Cyclin C binding assay (LanthaScreen Eu-Kinase Binding Assay); conditions: read-out: CDK19-CYCC IC50
Protocol: The binding assay relies on the LanthaScreen™ Eu-Kinase Binding Assay (Invitrogen).
Assay conditions were as indicated by the kit manufacturers with the following adaptations: • Assay buffer: 50 mM HEPES, pH 7.5, 1 mM EGTA, 0.01% Brij-35, 10 mM MgCl2 • Assay volume: 20 μl • Incubation time and temperature: 60 min at 25° C. • Cdk19-Cyclin C concentration: 2 nM • Tracer concentration: 20 nM • (Eu)-labelled anti-GST antibody concentration: 2 nM • Tested compound: Serial 1:3 dilutions • Final DMSO concentration in the assay: 1%
(§3) Assays were performed in 384-well plates. The final read out was generated using an EnVision plate reader (Perkin-Elmer).

intracellular CDK8 = intracellular CDK8 (Homo sapiens (Human), UniProt P49336); experiment: Endogenous phosphoSTAT1 inhibition in SW620 cells growing in 10% FBS; assay type: cell-based; conditions: semiquantitative, read-out: SW620 P-STAT1(S727)
Protocol: Endogenous phosphoSTAT1 inhibition can be screened in cells growing in 10% FBS. Cells are plated as described before and treated for 8 h with compounds as described before. Then cells are lysated and phospho STAT1 is evaluated as described before. The percentage of phosphorylated STAT1 vs total STAT1 in cells treated with DMSO is taken as hundred percent of phosphorylation. The percentage of STAT1 phosphorylation is finally plotted against concentration for each compound and EC50s for intracellular CDK8 inhibition are calculated using ActivityBase from IDBS.

SW620 [2] = experiment: In vitro cell proliferation assay (CellTiter-Glo), SW620; assay type: cell-based, human; conditions: Homo sapiens
Protocol: (§4) The in vitro potency of the compounds was measured by the cell proliferation assay CellTiter-Glo® Luminescent Cell Viability Assay, commercially available from Promega Corp., Madison, Wis. This homogeneous assay method is based on the recombinant expression of Coleoptera luciferase (U.S. Pat. No. 5,583,024; U.S. Pat. No. 5,674,713; U.S. Pat. No. 5,700,670) and determines the number of viable cells in culture based on quantitation of the ATP present, an indicator of metabolically active cells (Crouch et al (1993) J. Immunol. Meth. 160:81-88; U.S. Pat. No. 6,602,677). The CellTiterGlo® Assay was conducted […] it amenable to automated high throughput screening (HTS) (Cree et al (1995) AntiCancer Drugs 6:398-404).
(§5) The homogeneous assay procedure involves adding the single reagent (CellTiter-Glo® Reagent) directly to cells cultured in serum-supplemented medium. Cell washing, removal of medium and multiple pipetting steps are not required. The system detects as few as 15 cells/well in a 96-well format in 10 minutes after adding reagent and mixing.
(§6) The homogeneous “add-mix-measure” format results in cell lysis and generation of a luminescent signal proportional to the amount of ATP present. The amount of ATP is directly proportional to the number of cells present in culture. The CellTiter-Glo® Assay generates a “glow-type” luminescent signal, produced by the luciferase reaction, which has a half-life generally greater than five hours, depending on cell type and medium used. Viable cells are reflected in relative luminescence units (RLU). The substrate, Beetle Luciferin, is oxidatively decarboxylated by recombinant firefly luciferase with concomitant conversion of ATP to AMP and generation of photons. The extended half-life eliminates the need to use reagent injectors and provides flexibility for continuous or batch mode processing of multiple plates. This cell proliferation assay can be used with various multiwell formats, e.g. 96 or 384 well format. Data can be recorded by luminometer or CCD camera imaging device. The luminescence output is presented as relative light units (RLU), measured over time.

MV4:11 = experiment: In vitro cell proliferation assay (CellTiter-Glo), MV4:11; assay type: cell-based; conditions: Homo sapiens
Protocol: as §4, §5, §6

Haspin kinase = Haspin kinase (Homo sapiens (Human), UniProt Q8TF76); experiment: Haspin kinase assay (ADP-Glo); assay type: biochemical; conditions: ATP 150 μM
Text: The kinase assay relies on ADP-Glo^KM biochemical kinase assay (Promega). This is a luminescent kinase assay that measures ADP formed from a kinase reaction. Then ADP is converted into ATP, which is transformed into a light signal by Ultra-Glo™ Luciferase. The luminescent signal positively correlates with kinase activity. The assay measures the intrinsic ATPase activity (in the absence of peptidic substrate as phosphate acceptor).
The enzyme was purchase from Invitrogen (PV5708) as the kinase domain of GST tagged recombinant human proteins.
Assay conditions were as indicated by the kit manufacturers with the following adaptations: • Assay buffer: 15 mM HEPES pH 7.4, 20 mM NaCl, 1 mM EGTA, 0.02% Tween 20, 10 mM MgCl2, 0.1 mg/ml BGG • Assay volume: 20 μl • Incubation time and temperature: 60 min at 30° C. • Haspin concentration: 20 nM • ATP concentration: 150 μM • Tested compound: Serial 1:3 dilutions • Final DMSO concentration in the assay: 1%
Assays were performed in 384-well plates. The final read out was generated using an EnVision plate reader (Perkin-Elmer). Luminescent relative units are normalized against the control activity included for each compound (i.e., 100% Haspin activity, without compound) and the percentage of inhibition is calculated.

MDA-MB-231 = experiment: In vitro cell proliferation assay (CellTiter-Glo), MDA-MB-231; assay type: cell-based; conditions: Homo sapiens
Protocol: as §4, §5, §6

Molm13 = experiment: In vitro cell proliferation assay (CellTiter-Glo), Molm13; assay type: cell-based; conditions: Homo sapiens
Protocol: as §4, §5, §6

CDK8/Cyclin C = CDK8/Cyclin C (Homo sapiens (Human), UniProt P49336); experiment: CDK8/Cyclin C binding assay (LanthaScreen Eu-Kinase Binding Assay); conditions: binding assay
Protocol: The enzyme has been purchase from Invitrogen (PV4402) as a dimer of full-length His-tagged recombinant human proteins.
as §3

HCT116 = experiment: Combination assay, HCT116; assay type: cell-based; conditions: Homo sapiens, HCT-116; HCT116, chemotherapeutic alone; read-out: Chemo GI50
Protocol: as §1, §2

[3] = SW-620, growth inhibition, semiquantitative, read-out: GI50 SW620
[4] = MV4-11, growth inhibition, semiquantitative, read-out: GI50 MV4:11
[5] = MDA-MB-231, growth inhibition, semiquantitative, read-out: GI50 MDA-MB-231
[6] = MOLM-13, growth inhibition, semiquantitative, read-out: GI50 Molm13

CDK19/Cyclin C, sequence (Q9BWU1 whole entry): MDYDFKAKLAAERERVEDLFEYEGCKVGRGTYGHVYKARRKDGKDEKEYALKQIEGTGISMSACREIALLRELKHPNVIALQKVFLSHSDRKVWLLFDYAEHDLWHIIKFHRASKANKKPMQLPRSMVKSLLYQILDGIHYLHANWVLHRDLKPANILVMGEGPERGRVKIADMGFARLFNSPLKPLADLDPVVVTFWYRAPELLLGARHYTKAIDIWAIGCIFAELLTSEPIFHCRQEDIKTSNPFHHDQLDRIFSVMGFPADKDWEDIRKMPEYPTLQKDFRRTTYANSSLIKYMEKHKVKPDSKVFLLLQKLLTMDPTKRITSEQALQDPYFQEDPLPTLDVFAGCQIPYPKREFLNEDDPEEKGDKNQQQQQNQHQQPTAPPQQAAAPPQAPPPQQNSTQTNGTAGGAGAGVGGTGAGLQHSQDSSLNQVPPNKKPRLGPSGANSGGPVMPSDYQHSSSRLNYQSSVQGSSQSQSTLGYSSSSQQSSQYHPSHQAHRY
CDK19/Cyclin C, sequence (P24863 whole entry partner): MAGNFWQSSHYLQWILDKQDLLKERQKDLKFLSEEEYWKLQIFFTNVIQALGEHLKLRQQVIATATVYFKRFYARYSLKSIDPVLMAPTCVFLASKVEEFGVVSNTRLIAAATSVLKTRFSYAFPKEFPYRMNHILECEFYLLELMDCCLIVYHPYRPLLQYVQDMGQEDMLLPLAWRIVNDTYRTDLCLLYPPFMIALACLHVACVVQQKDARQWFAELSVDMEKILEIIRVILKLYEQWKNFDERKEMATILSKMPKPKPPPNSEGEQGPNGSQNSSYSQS
Haspin kinase, sequence (Q8TF76 484-798): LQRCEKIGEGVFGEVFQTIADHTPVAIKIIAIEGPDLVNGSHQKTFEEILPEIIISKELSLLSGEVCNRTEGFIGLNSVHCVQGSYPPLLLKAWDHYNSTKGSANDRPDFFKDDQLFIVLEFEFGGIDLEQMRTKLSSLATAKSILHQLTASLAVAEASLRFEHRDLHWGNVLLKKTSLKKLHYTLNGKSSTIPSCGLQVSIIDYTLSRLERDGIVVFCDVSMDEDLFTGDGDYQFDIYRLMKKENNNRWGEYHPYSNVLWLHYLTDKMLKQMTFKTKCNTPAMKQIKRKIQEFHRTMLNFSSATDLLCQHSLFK
CDK8/Cyclin C, sequence (P49336 whole entry): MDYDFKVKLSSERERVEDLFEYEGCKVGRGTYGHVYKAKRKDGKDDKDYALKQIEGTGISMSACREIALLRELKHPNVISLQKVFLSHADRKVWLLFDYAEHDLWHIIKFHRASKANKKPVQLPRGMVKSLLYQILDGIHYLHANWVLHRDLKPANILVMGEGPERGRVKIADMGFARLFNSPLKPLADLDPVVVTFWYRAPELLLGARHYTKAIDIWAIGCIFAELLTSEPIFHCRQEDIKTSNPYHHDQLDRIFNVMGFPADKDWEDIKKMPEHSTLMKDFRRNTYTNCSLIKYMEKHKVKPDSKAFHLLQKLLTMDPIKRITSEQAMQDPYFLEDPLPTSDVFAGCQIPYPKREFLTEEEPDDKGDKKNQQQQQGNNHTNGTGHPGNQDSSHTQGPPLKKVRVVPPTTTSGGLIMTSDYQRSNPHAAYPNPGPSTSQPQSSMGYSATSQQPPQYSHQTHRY
CDK8/Cyclin C, sequence (P24863 whole entry partner): as the sequence (P24863 whole entry partner) above
intracellular CDK8, sequence (P49336 whole entry): as the sequence (P49336 whole entry) above
intracellular CDK8, sequence (P24863 whole entry partner): as the sequence (P24863 whole entry partner) above
intracellular CDK8, sequence (Q93074 whole entry partner): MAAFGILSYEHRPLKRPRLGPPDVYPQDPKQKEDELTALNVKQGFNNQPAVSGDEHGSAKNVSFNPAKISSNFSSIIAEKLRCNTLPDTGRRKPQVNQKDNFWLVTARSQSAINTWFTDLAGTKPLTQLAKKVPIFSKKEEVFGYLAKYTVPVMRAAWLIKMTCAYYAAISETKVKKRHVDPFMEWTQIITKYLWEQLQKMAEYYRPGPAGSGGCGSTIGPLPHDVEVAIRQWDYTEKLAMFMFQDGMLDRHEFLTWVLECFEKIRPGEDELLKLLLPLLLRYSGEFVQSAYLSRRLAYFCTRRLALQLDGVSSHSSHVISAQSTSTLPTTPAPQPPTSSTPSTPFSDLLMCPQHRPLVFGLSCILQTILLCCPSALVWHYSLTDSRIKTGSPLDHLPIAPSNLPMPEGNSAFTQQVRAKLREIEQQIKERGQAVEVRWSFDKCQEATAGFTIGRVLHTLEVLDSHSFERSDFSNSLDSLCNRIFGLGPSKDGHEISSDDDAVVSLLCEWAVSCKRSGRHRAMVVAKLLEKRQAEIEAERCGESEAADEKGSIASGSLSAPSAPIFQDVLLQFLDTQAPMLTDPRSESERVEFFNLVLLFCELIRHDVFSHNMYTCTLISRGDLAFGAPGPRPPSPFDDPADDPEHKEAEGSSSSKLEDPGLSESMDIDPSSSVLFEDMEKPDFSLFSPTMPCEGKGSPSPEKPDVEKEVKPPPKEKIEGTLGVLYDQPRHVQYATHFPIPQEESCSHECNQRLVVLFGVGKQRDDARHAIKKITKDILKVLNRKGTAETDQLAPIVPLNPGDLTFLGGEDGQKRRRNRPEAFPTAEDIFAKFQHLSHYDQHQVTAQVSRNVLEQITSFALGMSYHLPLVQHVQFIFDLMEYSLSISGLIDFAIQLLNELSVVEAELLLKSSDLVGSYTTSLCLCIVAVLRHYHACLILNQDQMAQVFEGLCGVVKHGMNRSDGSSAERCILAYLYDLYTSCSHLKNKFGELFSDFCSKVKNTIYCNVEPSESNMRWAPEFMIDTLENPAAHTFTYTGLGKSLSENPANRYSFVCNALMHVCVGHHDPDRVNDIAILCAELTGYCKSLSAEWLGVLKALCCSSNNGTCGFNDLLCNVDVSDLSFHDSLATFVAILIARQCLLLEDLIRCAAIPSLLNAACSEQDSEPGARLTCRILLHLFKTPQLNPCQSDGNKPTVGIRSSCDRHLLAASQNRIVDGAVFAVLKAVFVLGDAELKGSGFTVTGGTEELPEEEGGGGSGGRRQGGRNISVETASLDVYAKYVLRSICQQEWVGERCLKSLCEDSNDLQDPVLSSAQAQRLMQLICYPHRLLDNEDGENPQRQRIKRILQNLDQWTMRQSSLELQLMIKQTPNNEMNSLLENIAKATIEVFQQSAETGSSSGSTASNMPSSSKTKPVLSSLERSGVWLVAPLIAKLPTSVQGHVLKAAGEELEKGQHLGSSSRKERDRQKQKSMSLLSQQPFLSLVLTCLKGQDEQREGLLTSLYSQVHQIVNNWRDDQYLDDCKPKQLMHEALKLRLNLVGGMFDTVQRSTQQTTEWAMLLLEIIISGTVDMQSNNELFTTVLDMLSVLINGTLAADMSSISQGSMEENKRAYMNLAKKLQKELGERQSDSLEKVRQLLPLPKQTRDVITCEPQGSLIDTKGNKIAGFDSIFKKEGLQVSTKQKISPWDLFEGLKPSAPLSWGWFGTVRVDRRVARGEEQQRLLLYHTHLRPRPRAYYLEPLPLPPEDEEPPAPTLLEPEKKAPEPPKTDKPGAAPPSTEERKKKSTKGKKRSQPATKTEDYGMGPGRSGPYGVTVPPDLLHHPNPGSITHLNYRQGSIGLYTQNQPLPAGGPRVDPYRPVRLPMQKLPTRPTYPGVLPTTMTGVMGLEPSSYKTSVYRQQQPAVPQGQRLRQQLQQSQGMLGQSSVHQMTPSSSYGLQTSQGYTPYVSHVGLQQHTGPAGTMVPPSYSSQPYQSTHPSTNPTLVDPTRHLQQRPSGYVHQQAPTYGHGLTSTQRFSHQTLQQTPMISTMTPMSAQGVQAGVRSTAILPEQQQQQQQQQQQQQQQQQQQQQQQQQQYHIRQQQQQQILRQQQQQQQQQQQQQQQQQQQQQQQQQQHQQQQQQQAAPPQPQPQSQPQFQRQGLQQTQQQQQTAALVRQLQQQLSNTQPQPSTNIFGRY

Row | Compound | GI50 (SW620 [1]; Homo sapiens, SW-620) [nM] | IC50 (CDK19/Cyclin C) [nM] | EC50 (intracellular CDK8) [nM] | GI50 (SW620 [2]; [3]) [nM] | GI50 (MV4:11; [4]) [nM] | IC50 (Haspin kinase) [nM] | GI50 (MDA-MB-231; [5]) [nM] | GI50 (Molm13; [6]) [nM] | IC50 (CDK8/Cyclin C) [nM] | GI50 (SW620 [2]; SW-620, read-out: GI50 SW620) [nM] | GI50 (MV4:11; MV4-11, read-out: GI50 MV4:11) [nM] | GI50 (MDA-MB-231; MDA-MB-231, read-out: GI50 MDA-MB-231) [nM] | GI50 (Molm13; MOLM-13, read-out: GI50 Molm13) [nM] | GI50 (SW620 [1]) [nM] | GI50 (HCT116) [nM]
1 | COc1ccc(S(=O)(=O)Nc2cccnc2Nc2ccc(O)cc2)cc1 [ABT-751, reference compound] | 500 | – | – | – | – | – | – | – | – | – | – | – | – | – | –
2 | NC(=O)c1cc2c([nH]1)-c1ccncc1OC21CCC1 [Example 15] | – | 1.41 | < 500 | 10000 to 100000 | < 1000 | 15.9 | 1000 to 10000 | < 1000 | 1.96 | – | – | – | – | – | –
3 | NC(=O)c1cc2c([nH]1)-c1ccncc1OC21CCN(CC(F)(F)F)CC1 [Example 18] | – | 40.5 | – | 10000 to 100000 | 1000 to 10000 | 344 | 10000 to 100000 | 1000 to 10000 | 20.2 | – | – | – | – | – | –
4 | Cn1c(C(N)=O)cc2c1-c1ccncc1OC2(C)C [Example 22] | – | 1.41 | – | – | – | 87.4 | – | – | 1.98 | 10000 to 100000 | < 1000 | 1000 to 10000 | 1000 to 10000 | – | –
5 | NC(=O)c1cc2c([nH]1)-c1ccncc1OC21CCN(CCc2ccccc2)CC1 [Example 46] | – | 585 | – | 1000 to 10000 | < 1000 | 81.3 | 1000 to 10000 | < 1000 | 445 | – | – | – | – | – | –
6 | NC(=O)c1cc2c(n1CCF)-c1ccncc1OC21CCC1 [Example 76] | – | 0.827 | < 500 | 1000 to 10000 | < 1000 | 24.2 | 1000 to 10000 | < 1000 | 0.262 | – | – | – | – | – | –
7 | CCn1c(C(N)=O)cc2c1-c1ccncc1OC21CCCCC1 [Example 80] | – | 0.77 | < 500 | 1000 to 10000 | < 1000 | – | 1000 to 10000 | < 1000 | 0.314 | – | – | – | – | – | –
8 | Cn1c(C(N)=O)cc2c1-c1ccncc1OC21CCOCC1 [Example 81] | – | 6.1 | – | 1000 to 10000 | < 1000 | 138 | 1000 to 10000 | < 1000 | 3.83 | – | – | – | – | – | –
9 | Cn1c(C(N)=O)cc2c1-c1ccncc1OC21CCCCC1 [Example 83] | – | 1.41 | < 500 | 1000 to 10000 | < 1000 | 9.8 | 1000 to 10000 | < 1000 | 0.278 | – | – | – | – | – | –
10 | CC1(C)Oc2cnccc2-c2[nH]c(C(N)=O)c(C3CC3)c21 [Example 86] | – | 0.48 | < 500 | 1000 to 10000 | < 1000 | 34.5 | 1000 to 10000 | 1000 to 10000 | 4.33 | – | – | – | – | – | –
11 | COCCn1c(C(N)=O)cc2c1-c1ccncc1OC21CCOCC1 [Example 87] | – | 20.9 | – | 10000 to 100000 | 1000 to 10000 | 136 | 10000 to 100000 | 10000 to 100000 | 14.2 | – | – | – | – | – | –
12 | O=C1[O][Pt]2([NH][C@@H]3CCCC[C@H]3[NH]2)[O]C1=O [Oxaliplatin, oxaliplatin, reference compound] | – | – | – | – | – | – | – | – | – | – | – | – | – | 5000 | –
13 | CC(=O)O[C@H]1C(=O)[C@@]2(C)[C@H]([C@H](OC(=O)c3ccccc3)[C@]3(O)C[C@H](OC(=O)[C@H](O)[C@@H](NC(=O)c4ccccc4)c4ccccc4)C(C)=C1C3(C)C)[C@]1(OC(C)=O)CO[C@@H]1C[C@@H]2O [Taxol, paclitaxel, reference compound] | 5 | – | – | – | – | – | – | – | – | – | – | – | – | – | 5

From patent publication US10208056B2, “Condensed tricyclic compounds as protein kinase inhibitors” (FUNDACIÓN DEL SECTOR PÚBLICO ESTATAL CENTRO NACIONAL DE …, priority 2015, dated 2019)
